Experiments:
Experiment in all cases: relative viability (nuclei count vs DMSO), 5 days (fraction); higher = more cells survive
Alisertib + Crizotinib = compound: COc1cc(Nc2ncc3c(n2)-c2ccc(Cl)cc2C(c2c(F)cccc2OC)=NC3)ccc1C(=O)O [Alisertib] + C[C@@H](Oc1cc(-c2cnn(C3CCNCC3)c2)cnc1N)c1c(Cl)ccc(F)c1Cl [Crizotinib] (partner 1 µM)
Outline: (§1)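 The day after seeding in 1536-well plates, lung cancer cell lines were treated by pin tool with a single drug, or with a fixed anchor-drug dose together with five library-drug doses (not always all listed) in √10 steps. After 5 days, a combined fix-and-stain solution (final 0.05% Triton X-100, 1% formaldehyde, 1 ug/ml Hoechst) was added. Nuclei counted on 4× images gave relative viability as treated counts over vehicle counts, reported as the median of duplicate plates.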

Alisertib + Tozasertib = compound: COc1cc(Nc2ncc3c(n2)-c2ccc(Cl)cc2C(c2c(F)cccc2OC)=NC3)ccc1C(=O)O [Alisertib] + Cc1cc(Nc2cc(N3CCN(C)CC3)nc(Sc3ccc(NC(=O)C4CC4)cc3)n2)n[nH]1 [Tozasertib] (partner 0.1 µM)
Outline: as §1

Alisertib + Lapatinib = compound: COc1cc(Nc2ncc3c(n2)-c2ccc(Cl)cc2C(c2c(F)cccc2OC)=NC3)ccc1C(=O)O [Alisertib] + CS(=O)(=O)CCNCc1ccc(-c2ccc3ncnc(Nc4ccc(OCc5cccc(F)c5)c(Cl)c4)c3c2)o1 [Lapatinib] (partner 2 µM)
Outline: as §1

Alisertib + Decitabine = compound: COc1cc(Nc2ncc3c(n2)-c2ccc(Cl)cc2C(c2c(F)cccc2OC)=NC3)ccc1C(=O)O [Alisertib] + Nc1ncn([C@H]2C[C@H](O)[C@@H](CO)O2)c(=O)n1 [Decitabine] (partner 2 µM)
Outline: as §1

Cell Line	relative viability (Alisertib + Crizotinib; first compound 0.005 µM)	relative viability (Alisertib + Crizotinib; first compound 0.01581 µM)	relative viability (Alisertib + Crizotinib; first compound 0.05 µM)	relative viability (Alisertib + Crizotinib; first compound 0.1581 µM)	relative viability (Alisertib + Crizotinib; first compound 0.5 µM)	relative viability (Alisertib + Tozasertib; first compound 0.005 µM)	relative viability (Alisertib + Tozasertib; first compound 0.01581 µM)	relative viability (Alisertib + Tozasertib; first compound 0.05 µM)	relative viability (Alisertib + Tozasertib; first compound 0.1581 µM)	relative viability (Alisertib + Tozasertib; first compound 0.5 µM)	relative viability (Alisertib + Lapatinib; first compound 0.005 µM)	relative viability (Alisertib + Lapatinib; first compound 0.01581 µM)	relative viability (Alisertib + Lapatinib; first compound 0.05 µM)	relative viability (Alisertib + Lapatinib; first compound 0.1581 µM)	relative viability (Alisertib + Lapatinib; first compound 0.5 µM)	relative viability (Alisertib + Decitabine; first compound 0.005 µM)	relative viability (Alisertib + Decitabine; first compound 0.01581 µM)	relative viability (Alisertib + Decitabine; first compound 0.05 µM)	relative viability (Alisertib + Decitabine; first compound 0.1581 µM)	relative viability (Alisertib + Decitabine; first compound 0.5 µM)
201T	0.982	0.992	0.938	0.809	0.418	0.899	0.681	0.579	0.407	0.354	0.94	1.06	1.05	0.954	0.458	0.837	0.847	0.72	0.582	0.802
A-427	0.903	0.839	0.136	0.146	0.174	0.211	0.166	0.174	0.186	0.135	0.869	0.931	0.853	0.185	0.142	0.52	0.442	0.233	0.211	0.211
ABC-1	1.1	0.551	0.363	0.318	0.23	0.178	0.233	0.256	0.203	0.196	1.22	1.1	1.05	0.91	0.616	1.12	0.915	0.869	0.598	0.33
BEN	0.868	0.838	0.238	0.213	0.237	0.531	0.457	0.375	0.456	0.4	0.707	0.585	0.261	0.203	0.221	0.607	0.51	0.304	0.363	0.325
CAL-12T	0.613	0.232	0.142	0.166	0.109	0.333	0.28	0.202	0.199	0.178	0.556	0.526	0.195	0.198	0.169	–	–	–	–	–
COR-L23	0.571	0.48	0.17	0.151	0.102	0.439	0.213	0.119	0.124	0.114	0.929	0.759	0.47	0.165	0.124	0.422	0.419	0.307	0.146	0.118
COR-L 105	0.857	0.587	0.621	0.523	0.251	0.31	0.346	0.299	0.352	0.276	0.322	0.413	0.319	0.223	0.263	0.633	0.698	0.481	0.349	0.324
Calu-6	0.697	0.334	0.204	0.227	0.198	–	–	–	–	–	0.925	0.541	0.382	0.204	0.216	–	–	–	–	–
ChaGo-K-1	1.08	0.849	0.366	0.344	0.317	0.228	0.213	0.194	0.207	0.198	–	–	–	–	–	0.518	0.423	0.222	0.197	0.19
EBC-1	0.177	0.189	0.174	0.139	0.155	–	–	–	–	–	0.224	0.21	0.188	0.178	0.152	–	–	–	–	–
EKVX	0.796	0.807	0.313	0.182	0.219	0.379	0.305	0.205	0.141	0.151	0.211	0.238	0.16	0.126	0.111	0.303	0.302	0.206	0.174	0.158
EMC-BAC-2	0.683	0.382	0.25	0.225	0.148	0.243	0.283	0.214	0.224	0.173	0.764	0.813	0.671	0.267	0.236	0.849	0.694	0.445	0.343	0.291
EPLC-272H	0.931	0.851	0.739	0.201	0.113	0.238	0.176	0.144	0.192	0.16	0.756	0.612	0.846	0.152	0.112	0.344	0.363	0.295	0.141	0.152
H3255	0.909	0.765	0.662	0.205	0.174	0.737	0.503	0.296	0.137	0.227	0.277	0.256	0.269	0.169	0.176	0.602	0.467	0.396	0.241	0.143
HARA	1.05	0.796	0.277	0.169	0.135	0.103	0.0888	0.0929	0.104	0.0887	0.616	0.631	0.848	0.129	0.0993	0.524	0.58	0.334	0.208	0.145
HCC-15	0.808	0.655	0.219	0.115	0.0945	0.352	0.154	0.163	0.144	0.0961	0.746	0.671	0.392	0.122	0.109	0.541	0.316	0.19	0.13	0.139

Cell Line	relative viability (Alisertib + Crizotinib; first compound 0.005 µM)	relative viability (Alisertib + Crizotinib; first compound 0.01581 µM)	relative viability (Alisertib + Crizotinib; first compound 0.05 µM)	relative viability (Alisertib + Crizotinib; first compound 0.1581 µM)	relative viability (Alisertib + Crizotinib; first compound 0.5 µM)	relative viability (Alisertib + Tozasertib; first compound 0.005 µM)	relative viability (Alisertib + Tozasertib; first compound 0.01581 µM)	relative viability (Alisertib + Tozasertib; first compound 0.05 µM)	relative viability (Alisertib + Tozasertib; first compound 0.1581 µM)	relative viability (Alisertib + Tozasertib; first compound 0.5 µM)	relative viability (Alisertib + Lapatinib; first compound 0.005 µM)	relative viability (Alisertib + Lapatinib; first compound 0.01581 µM)	relative viability (Alisertib + Lapatinib; first compound 0.05 µM)	relative viability (Alisertib + Lapatinib; first compound 0.1581 µM)	relative viability (Alisertib + Lapatinib; first compound 0.5 µM)	relative viability (Alisertib + Decitabine; first compound 0.005 µM)	relative viability (Alisertib + Decitabine; first compound 0.01581 µM)	relative viability (Alisertib + Decitabine; first compound 0.05 µM)	relative viability (Alisertib + Decitabine; first compound 0.1581 µM)	relative viability (Alisertib + Decitabine; first compound 0.5 µM)
HCC-44	0.872	0.769	0.388	0.219	0.176	0.929	0.59	0.296	0.349	0.196	0.991	0.922	0.906	0.242	0.151	0.895	0.937	0.849	0.419	0.364
HCC-78	0.358	0.291	0.205	0.153	0.205	0.446	0.273	0.281	0.245	0.211	0.743	0.783	0.428	0.205	0.19	0.635	0.507	0.316	0.29	0.298
HCC-366	0.686	0.456	0.0307	0.0254	0.0216	0.125	0.0689	0.0539	0.0439	0.0387	1.02	0.31	0.0171	0.0127	0.0262	0.29	0.16	0.0371	0.0279	0.0431
HCC-827	0.898	0.802	0.374	0.395	0.254	0.378	0.31	0.258	0.273	0.278	0.183	0.228	0.191	0.16	0.101	0.373	0.303	0.246	0.219	0.24
IA-LM	0.831	0.608	0.485	0.256	0.104	–	–	–	–	–	0.853	0.91	0.309	0.212	0.184	–	–	–	–	–
LCLC-103H	1.04	1.04	0.719	0.374	0.412	0.432	0.42	0.223	0.247	0.26	–	–	–	–	–	0.72	0.714	0.355	0.315	0.431
NCI-H441	0.626	0.555	0.131	0.178	0.136	0.478	0.366	0.253	0.286	0.227	–	–	–	–	–	0.227	0.197	0.137	0.152	0.153
NCI-H1299	0.965	0.727	0.671	0.348	0.252	–	–	–	–	–	0.939	0.904	0.586	0.452	0.295	–	–	–	–	–
NCI-H1395	–	–	–	–	–	0.725	0.708	0.488	0.478	0.391	0.865	0.843	0.795	0.596	0.391	0.649	0.618	0.505	0.471	0.393
NCI-H1563	0.741	0.911	0.788	0.809	0.601	–	–	–	–	–	1.02	0.654	0.85	0.892	0.598	–	–	–	–	–
NCI-H1648	–	–	–	–	–	0.637	0.272	0.218	0.303	0.205	–	–	–	–	–	–	0.478	0.405	0.279	0.247
NCI-H1703	0.711	0.501	0.294	0.37	0.113	–	–	–	–	–	1.11	0.721	0.217	0.262	0.137	–	–	–	–	–
NCI-H1792	0.939	0.91	0.543	0.201	0.0858	–	–	–	–	–	0.847	0.875	0.61	0.215	0.0684	0.575	0.496	0.213	0.132	0.0838
NCI-H1793	–	–	–	–	–	0.45	0.231	0.269	0.176	0.185	0.887	0.376	0.41	0.22	0.27	0.359	0.309	0.196	0.24	0.206
NCI-H2228	0.686	0.406	0.301	0.168	0.188	0.322	0.19	0.147	0.132	0.109	0.731	0.562	0.182	0.115	0.209	–	–	–	–	–
NCI-H2342	–	–	–	–	–	0.623	0.424	0.335	0.377	0.351	–	–	–	–	–	0.673	0.639	0.452	0.441	0.431
